Assay results reported in paper PMC8781450, “Isoquinoline Alkaloids as Protein Tyrosine Phosphatase Inhibitors from a Deep-Sea-Derived Fungus Aspergillus puniceus” (Marine Drugs, 2022).
In brackets after ≈: the same amount, converted by molar mass. Like-named read-outs stand apart in the source and are kept apart here.

Legend:
[1] = Cytotoxicity by CCK-8 method; format: cell-based; details: human, H1975 lung adenocarcinoma cells, read-out: Cytotoxicity (IC50) H1975 Cell (after 24 h)
Procedure: Cytotoxic activity was evaluated using human lung adenocarcinoma cell line H1975 by CCK-8 method. Briefly, each of the test compounds was dissolved in DMSO and further diluted to give final concentrations of 80, 40, 20, 10, 5, 2.5, and 1.25 µg/mL, respectively. H1975 cells (5 × 10^3 cells/plate) were seeded in 96-well plates and treated with compounds at the indicated concentration for 24 h, and then 10 μL CCK-8 reagent was added to each well, and the plates were incubated at 37 °C for another 4 h. Next, the optical density was measured at a wavelength of 450 nm with the Bio-Rad (Hercules, CA, USA) microplate reader. Dose–response curves were generated, and the IC50 values were calculated from the linear portion of log dose–response curves.

LAR = LAR (Homo sapiens, UniProt P10586); assay: Protein phosphatase inhibition assay, LAR
CD45 = target: T1, CD45 (Homo sapiens, UniProt P08575); assay: Protein phosphatase inhibition assay, CD45
T1 sequence (P08575 26-1306): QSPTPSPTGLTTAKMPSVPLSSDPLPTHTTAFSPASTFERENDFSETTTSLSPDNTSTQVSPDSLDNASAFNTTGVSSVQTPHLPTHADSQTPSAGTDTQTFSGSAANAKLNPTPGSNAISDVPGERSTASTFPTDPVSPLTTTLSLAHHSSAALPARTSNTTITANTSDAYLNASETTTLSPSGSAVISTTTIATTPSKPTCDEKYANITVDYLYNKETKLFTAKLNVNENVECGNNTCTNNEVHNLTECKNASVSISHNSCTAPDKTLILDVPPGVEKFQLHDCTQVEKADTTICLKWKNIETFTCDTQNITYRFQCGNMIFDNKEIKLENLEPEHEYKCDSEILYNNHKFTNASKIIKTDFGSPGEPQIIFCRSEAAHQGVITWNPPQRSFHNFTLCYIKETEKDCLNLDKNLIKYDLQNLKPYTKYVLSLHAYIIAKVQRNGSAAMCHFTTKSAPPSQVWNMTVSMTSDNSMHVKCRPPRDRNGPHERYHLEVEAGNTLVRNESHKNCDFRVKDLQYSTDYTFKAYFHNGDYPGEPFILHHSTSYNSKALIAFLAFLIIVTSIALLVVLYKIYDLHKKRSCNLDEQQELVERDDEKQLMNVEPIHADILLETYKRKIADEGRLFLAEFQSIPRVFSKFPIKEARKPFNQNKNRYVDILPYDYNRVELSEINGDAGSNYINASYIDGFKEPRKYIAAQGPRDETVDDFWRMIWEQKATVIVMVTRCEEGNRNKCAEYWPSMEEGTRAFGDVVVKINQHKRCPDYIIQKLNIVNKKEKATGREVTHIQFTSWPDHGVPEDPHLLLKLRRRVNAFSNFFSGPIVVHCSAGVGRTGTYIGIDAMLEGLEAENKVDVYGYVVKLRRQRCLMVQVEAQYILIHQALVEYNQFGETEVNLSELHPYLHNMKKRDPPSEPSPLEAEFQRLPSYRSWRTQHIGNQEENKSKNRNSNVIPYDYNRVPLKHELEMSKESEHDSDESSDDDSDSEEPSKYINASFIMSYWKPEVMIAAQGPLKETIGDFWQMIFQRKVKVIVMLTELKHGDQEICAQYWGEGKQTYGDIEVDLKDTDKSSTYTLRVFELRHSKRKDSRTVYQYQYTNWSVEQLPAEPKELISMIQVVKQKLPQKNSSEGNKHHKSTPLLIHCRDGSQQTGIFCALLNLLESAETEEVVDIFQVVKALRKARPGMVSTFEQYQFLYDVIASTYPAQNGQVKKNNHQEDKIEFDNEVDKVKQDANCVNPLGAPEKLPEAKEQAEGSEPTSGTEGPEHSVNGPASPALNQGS

SHP1 = SHP1 (Homo sapiens, UniProt P29350); assay: Protein phosphatase inhibition assay, SHP1
TCPTP = target: T2, TCPTP (Homo sapiens, UniProt P17706); assay: Protein phosphatase inhibition assay, TCPTP
T2 sequence (P17706 1-415): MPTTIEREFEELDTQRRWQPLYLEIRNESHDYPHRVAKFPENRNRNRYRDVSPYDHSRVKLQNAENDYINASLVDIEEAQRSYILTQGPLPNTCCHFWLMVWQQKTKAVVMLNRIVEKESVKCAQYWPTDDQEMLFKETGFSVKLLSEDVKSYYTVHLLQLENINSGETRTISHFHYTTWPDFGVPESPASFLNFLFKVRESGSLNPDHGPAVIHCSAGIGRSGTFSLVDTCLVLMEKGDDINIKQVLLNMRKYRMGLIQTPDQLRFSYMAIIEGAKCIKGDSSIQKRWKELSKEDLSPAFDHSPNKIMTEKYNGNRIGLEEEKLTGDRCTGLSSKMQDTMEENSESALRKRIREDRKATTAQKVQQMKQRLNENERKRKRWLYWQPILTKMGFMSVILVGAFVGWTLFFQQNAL

PTP1B = target: T3, PTP1B (Homo sapiens, UniProt P18031); assay: Protein phosphatase inhibition assay, PTP1B
T3 sequence (P18031 1-435): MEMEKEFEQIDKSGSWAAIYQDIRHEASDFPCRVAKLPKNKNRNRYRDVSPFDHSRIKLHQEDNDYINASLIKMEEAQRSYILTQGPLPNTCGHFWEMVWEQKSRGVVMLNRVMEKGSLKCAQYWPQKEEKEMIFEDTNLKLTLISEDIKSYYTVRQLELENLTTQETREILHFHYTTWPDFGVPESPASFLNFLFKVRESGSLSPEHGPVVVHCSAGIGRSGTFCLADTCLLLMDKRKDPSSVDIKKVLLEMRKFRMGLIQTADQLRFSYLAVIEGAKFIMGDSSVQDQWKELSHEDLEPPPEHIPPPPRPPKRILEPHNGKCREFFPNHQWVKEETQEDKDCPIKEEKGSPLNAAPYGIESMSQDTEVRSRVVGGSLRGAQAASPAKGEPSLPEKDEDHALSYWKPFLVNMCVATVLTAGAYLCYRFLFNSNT

[2] = test system: methicillin-resistant S. aureus (MRSA); assay: Antibacterial 2-fold dilution assay, MRSA; details: Staphylococcus aureus, 12 h, read-out: MIC, methicillin-resistant S. aureus (MRSA)
Procedure: (§1) Antibacterial activities of 1–14 against E. coli, S. aureus and MRSA were evaluated using the 2-fold dilution assay in 96-microwell plates. Briefly, all the indicator bacteria were cultured on Luria−Bertani (LB) agar plates at 37 °C for 12 h, and then a single colony was picked into LB liquid medium and cultivated on a rotary shaker at 37 °C for 12 h. Then, the bacterial suspensions with LB medium were diluted until the difference of the OD600 values between the bacterial suspensions and the medium was 0.01~0.02. […] The 96-well plates were incubated at 37 °C for 12 h. MIC value was determined as the lowest concentration with no visible bacterial growth. Ampicillin was used as the positive control and DMSO as the negative control. All experiments were performed three times.

Escherichia coli = assay: Antibacterial 2-fold dilution assay, E. coli; details: 12 h, read-out: MIC, Escherichia coli
Procedure: as §1

Staphylococcus aureus = assay: Antibacterial 2-fold dilution assay, S. aureus; details: 12 h, read-out: MIC, Staphylococcus aureus
Procedure: as §1

Sequence of LAR (P10586 30-1907): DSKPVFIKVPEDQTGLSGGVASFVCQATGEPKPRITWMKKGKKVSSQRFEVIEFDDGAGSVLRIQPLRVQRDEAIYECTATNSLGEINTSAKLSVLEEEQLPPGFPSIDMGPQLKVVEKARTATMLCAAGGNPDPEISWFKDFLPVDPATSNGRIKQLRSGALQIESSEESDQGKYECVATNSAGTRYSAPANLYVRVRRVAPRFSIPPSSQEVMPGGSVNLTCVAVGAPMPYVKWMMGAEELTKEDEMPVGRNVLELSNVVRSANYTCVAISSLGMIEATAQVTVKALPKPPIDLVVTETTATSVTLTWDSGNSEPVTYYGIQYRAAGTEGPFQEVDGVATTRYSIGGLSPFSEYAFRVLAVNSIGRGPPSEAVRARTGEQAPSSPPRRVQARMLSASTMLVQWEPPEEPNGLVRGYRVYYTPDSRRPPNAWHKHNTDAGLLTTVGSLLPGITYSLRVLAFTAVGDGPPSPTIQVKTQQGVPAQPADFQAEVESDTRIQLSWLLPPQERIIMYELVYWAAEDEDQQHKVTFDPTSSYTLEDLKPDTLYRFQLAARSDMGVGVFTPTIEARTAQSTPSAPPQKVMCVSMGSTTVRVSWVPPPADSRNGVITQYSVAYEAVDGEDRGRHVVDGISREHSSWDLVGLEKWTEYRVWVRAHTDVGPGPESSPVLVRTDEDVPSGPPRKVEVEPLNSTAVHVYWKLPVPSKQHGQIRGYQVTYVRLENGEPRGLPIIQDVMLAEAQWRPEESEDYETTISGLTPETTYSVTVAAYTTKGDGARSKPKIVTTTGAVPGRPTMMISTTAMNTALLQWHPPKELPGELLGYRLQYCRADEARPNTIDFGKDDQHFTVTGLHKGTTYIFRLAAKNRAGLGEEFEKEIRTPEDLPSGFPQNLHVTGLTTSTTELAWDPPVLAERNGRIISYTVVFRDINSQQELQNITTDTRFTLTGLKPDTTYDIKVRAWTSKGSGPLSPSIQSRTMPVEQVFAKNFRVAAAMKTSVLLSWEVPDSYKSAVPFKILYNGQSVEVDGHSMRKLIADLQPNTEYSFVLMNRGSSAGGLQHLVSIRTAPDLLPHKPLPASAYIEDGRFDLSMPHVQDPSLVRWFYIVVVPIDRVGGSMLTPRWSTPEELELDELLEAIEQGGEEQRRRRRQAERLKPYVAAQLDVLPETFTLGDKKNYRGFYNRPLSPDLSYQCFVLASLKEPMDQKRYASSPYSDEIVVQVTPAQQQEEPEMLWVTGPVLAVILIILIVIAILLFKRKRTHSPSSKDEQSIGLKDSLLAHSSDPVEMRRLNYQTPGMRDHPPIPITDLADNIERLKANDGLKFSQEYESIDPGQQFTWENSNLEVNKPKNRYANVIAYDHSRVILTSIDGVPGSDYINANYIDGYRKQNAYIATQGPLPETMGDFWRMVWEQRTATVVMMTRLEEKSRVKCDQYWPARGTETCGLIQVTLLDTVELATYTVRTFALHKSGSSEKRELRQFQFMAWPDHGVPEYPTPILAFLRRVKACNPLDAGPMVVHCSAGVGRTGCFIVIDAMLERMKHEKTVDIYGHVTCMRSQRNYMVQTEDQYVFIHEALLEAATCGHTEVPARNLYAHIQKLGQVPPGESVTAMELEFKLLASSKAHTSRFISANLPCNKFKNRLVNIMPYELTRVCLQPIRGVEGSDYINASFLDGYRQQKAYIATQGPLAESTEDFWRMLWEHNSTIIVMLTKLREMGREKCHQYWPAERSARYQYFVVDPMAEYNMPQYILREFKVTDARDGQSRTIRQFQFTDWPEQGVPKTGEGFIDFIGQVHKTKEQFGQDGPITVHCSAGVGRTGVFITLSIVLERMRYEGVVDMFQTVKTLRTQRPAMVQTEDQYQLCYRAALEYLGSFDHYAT
Sequence of SHP1 (P29350 whole entry): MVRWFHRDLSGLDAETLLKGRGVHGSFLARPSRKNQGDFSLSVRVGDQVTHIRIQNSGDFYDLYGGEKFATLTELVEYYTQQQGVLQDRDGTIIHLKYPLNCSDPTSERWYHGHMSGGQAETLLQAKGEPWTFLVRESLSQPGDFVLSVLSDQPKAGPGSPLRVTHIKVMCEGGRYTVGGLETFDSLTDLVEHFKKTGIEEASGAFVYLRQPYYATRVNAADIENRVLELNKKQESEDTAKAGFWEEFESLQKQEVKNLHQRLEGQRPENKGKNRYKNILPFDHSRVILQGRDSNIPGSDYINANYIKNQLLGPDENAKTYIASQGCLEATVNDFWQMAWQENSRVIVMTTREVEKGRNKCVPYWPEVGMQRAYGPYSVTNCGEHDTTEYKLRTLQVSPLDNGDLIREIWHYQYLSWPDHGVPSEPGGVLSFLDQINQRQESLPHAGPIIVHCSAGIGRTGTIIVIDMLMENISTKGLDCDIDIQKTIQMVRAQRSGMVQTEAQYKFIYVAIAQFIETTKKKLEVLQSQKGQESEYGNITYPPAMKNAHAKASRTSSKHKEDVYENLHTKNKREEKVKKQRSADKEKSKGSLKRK

SMILES: COc1cc2ccncc2c(O)c1Cc1c(OC)c(C)c(O)c2cnccc12 [Compound 5, Puniceusine E]
- IC50 at 24 h [1]: > 80 µM
- IC50 (LAR): > 200 µM
- IC50 (CD45): 103 µM
- IC50 (SHP1): 145 µM
- IC50 (TCPTP): > 200 µM
- IC50 (PTP1B): 200 µM

SMILES: CC(=O)c1ccc(NC2=C(Cl)C(=O)c3ccccc3C2=O)cc1 [AACQ, 2-[(4-acetylphenyl)amino]-3-chloronaphthoquinone, reference compound]
- IC50 (CD45; read-out: Inhibitory Effect against Phosphatases (IC50) CD45): 0.29 µM

SMILES: COc1cc2ccncc2c2c(C)c(O)c(C)cc12 [Compound 7, Puniceusine G]
- IC50 at 24 h [1]: > 80 µM
- IC50 (LAR): > 200 µM
- IC50 (CD45): > 200 µM
- IC50 (SHP1): > 200 µM
- IC50 (TCPTP): > 200 µM
- IC50 (PTP1B): > 200 µM

SMILES: COc1cc2ccncc2c(O)c1Cc1c(O)cc(O)c2c1[C@@H](C)OC2 [Compound 9, Puniceusine I]
- IC50 at 24 h [1]: > 80 µM
- IC50 (LAR): > 200 µM
- IC50 (CD45): 27.2 µM
- IC50 (SHP1): 41.8 µM
- IC50 (TCPTP): 57.7 µM
- IC50 (PTP1B): 68.8 µM

SMILES: COc1cc2ccncc2c(O)c1Cc1c(OC)cc2ccncc2c1O [Compound 3, Puniceusine C]
- IC50 at 24 h [1]: 71.3 µM
- IC50 (LAR): 21.9 µM
- IC50 (CD45): 8.4 µM
- IC50 (SHP1): 20.7 µM
- IC50 (TCPTP): > 200 µM
- IC50 (PTP1B): 64.5 µM

SMILES: CCc1oc(=O)c(Cc2c(OC)cc3ccncc3c2O)c(O)c1C [Compound 13, Puniceusine M]
- IC50 at 24 h [1]: > 80 µM
- IC50 (LAR): 32.6 µM
- IC50 (CD45): 11.1 µM
- IC50 (SHP1): 40.3 µM
- IC50 (TCPTP): > 200 µM
- IC50 (PTP1B): 37.9 µM

SMILES: [Na+].[Na+].[Na+].[O]=[V]([O-])([O-])[O-] [Na3VO4, reference compound]
- IC50 (SHP1; read-out: Inhibitory Effect against Phosphatases (IC50) SHP1): 4.4 µM
- IC50 (TCPTP; read-out: Inhibitory Effect against Phosphatases (IC50) TCPTP): 2.4 µM

SMILES: CCC(=O)c1c(C)c(O)c(Cc2c(OC)cc3ccncc3c2O)c(O)c1O [Compound 10, Puniceusine J]
- IC50 at 24 h [1]: > 80 µM
- IC50 (LAR): 100 µM
- IC50 (CD45): 30.8 µM
- IC50 (SHP1): > 200 µM
- IC50 (TCPTP): > 200 µM
- IC50 (PTP1B): > 200 µM

SMILES: COc1cc(O)c2cnccc2c1 [Compound 1, 6-methoxy-8-hydroxy-isoquinolin]
- IC50 at 24 h [1]: 76.2 µM
- IC50 (LAR): 100 µM
- IC50 (CD45): 29.7 µM
- IC50 (SHP1): 38.3 µM
- IC50 (TCPTP): 197 µM
- IC50 (PTP1B): 182 µM

SMILES: COc1cc2ccncc2c(O)c1Cc1c(O)c(OC)c2c(c1O)C(=O)O[C@H]2[C@@H](C)O [Compound 11, Puniceusine K]
- IC50 at 24 h [1]: > 80 µM
- IC50 (LAR): > 200 µM
- IC50 (CD45): 100 µM
- IC50 (SHP1): 145 µM
- IC50 (TCPTP): > 200 µM
- IC50 (PTP1B): 190 µM

SMILES: COc1cc2ccncc2c(O)c1CC(C)C(=O)O (stereo not drawn) [Compound 6, Puniceusine F]
- IC50 at 24 h [1]: > 80 µM
- IC50 (LAR): > 200 µM
- IC50 (CD45): > 200 µM
- IC50 (SHP1): 200 µM
- IC50 (TCPTP): > 200 µM
- IC50 (PTP1B): > 200 µM

SMILES: CCCCC(CC)COC(=O)CC[n+]1ccc2cc(OC)c(C)c(O)c2c1 (stereo not drawn) [Compound 14, Puniceusine N]
- IC50 at 24 h [1]: > 80 µM
- IC50 (LAR): > 200 µM
- MIC [2]: 100 µg/mL
- IC50 (CD45): 200 µM
- IC50 (SHP1): > 200 µM
- IC50 (TCPTP): > 200 µM
- IC50 (PTP1B): > 200 µM
- MIC (Escherichia coli): 100 µg/mL
- MIC (Staphylococcus aureus): 100 µg/mL

SMILES: COc1cc2ccncc2c(O)c1Cc1c(OC)cc(O)c2cnccc12 [Compound 4, Puniceusine D]
- IC50 at 24 h [1]: 11 µM
- IC50 (CD45): 5.6 µM
- IC50 (SHP1): 130 µM
- IC50 (TCPTP): > 200 µM
- IC50 (PTP1B): 150 µM
- MIC (Escherichia coli): 100 µg/mL (≈ 276 µM)

SMILES: COc1cc2ccncc2c(O)c1C [Compound 2, 6-methoxy-7-methyl-8-hydroxy-isoquinolin]
- IC50 at 24 h [1]: > 80 µM
- IC50 (LAR): > 200 µM
- IC50 (CD45): > 200 µM
- IC50 (SHP1): > 200 µM
- IC50 (TCPTP): > 200 µM
- IC50 (PTP1B): > 200 µM

SMILES: COc1cc2ccncc2c(O)c1Cc1c(O)cc(O)c(OC)c1C(=O)C(C)=O [Compound 8, Puniceusine H]
- IC50 at 24 h [1]: > 80 µM
- IC50 (LAR): > 200 µM
- IC50 (CD45): 49 µM
- IC50 (SHP1): 100 µM
- IC50 (TCPTP): > 200 µM
- IC50 (PTP1B): 180 µM

SMILES: CCc1cc(O)c(Cc2c(OC)cc3ccncc3c2O)c(=O)o1 [Compound 12, Puniceusine L]
- IC50 at 24 h [1]: > 80 µM
- IC50 (LAR): 150 µM
- IC50 (CD45): 38.5 µM
- IC50 (SHP1): 117 µM
- IC50 (TCPTP): > 200 µM
- IC50 (PTP1B): 170 µM
